Reference: patent US10980766B2, “Entacapone-related compounds to treat macular degeneration” (National Institute of Biological Sciences, Beijing, priority 2016, dated 2021)
Marks after values point to notes of the source that are not given here.

Test system: hypoxia-induced retinopathy zebrafish model
Test: hypoxia-induced retinopathy zebrafish model (cobalt chloride induced)
Type: in vivo
Conditions: for Blood vessel diameter (mean ± SE): cobalt chloride co-treatment for 4 days, n=10; for Recovery rate (%): blood vessel diameter recovery
Method: We measured the therapeutic efficacy of entacapone and representative entacapone derivatives in hypoxia-induced retinopathy zebrafish model (Cao et al., Hypoxia-induced retinopathy model in adult zebrafish. Nat Protoc 2010, 5 (12), 1903-10).
We measured the therapeutic effect of entacapone and several representative entacapone derivatives on hypoxia-induced retinopathy zebrafish model. The transgenic Tg (flila:EGFP) zebrafish were treated with cobalt chloride for 4 days to induce retinopathy. […] As positive control, zebrafish were treated with cobalt chloride and 100 μL/mL eye-drops augentropfen stulln mono containing 0.3 μg/mL digitalin and 2 μg/mL esculin.

[1] = 10 μM as printed in text, 4 days

CCN(CC)C(=O)/C(C#N)=C/c1cc(O)c(O)c([N+](=O)[O-])c1 [Entacapone, (2E)-2-cyano-3-(3,4-dihydroxy-5-nitrophenyl)-N,N-diethylprop-2-enamide]
Blood vessel diameter (mean ± SE) (5 μM): 19.33 ± 0.52 pixel | Blood vessel diameter (mean ± SE) (5 μM, listed as entacapone): 19.33 pixel | blood vessel diameter recovery rate [1]: 94% | retinal blood diameter [1]: 17.39 | Blood vessel diameter (mean ± SE) (15 μM): 17.39 ± 0.49 pixel | Blood vessel diameter (mean ± SE) (50 μM): 17.47 ± 0.29 pixel | Blood vessel diameter (mean ± SE) (50 μM, listed as entacapone): 17.47 pixel | eye ball volume (in words) (after treatment, compared with model group): larger | Recovery rate (%) (5 μM, 4 days): 58*** % | Recovery rate (%) (5 μM, 4 days, listed as entacapone): 58% | Recovery rate (%) (15 μM, 4 days): 94*** % | Recovery rate (%) (50 μM, 4 days): 93*** % | Recovery rate (%) (50 μM, 4 days, listed as entacapone): 93% | retinal angiogenesis and retina structure (in words) (compared with model group): suppress hypoxia-induced retinal neoangiogenesis and improve histopathology of retinopathy | inner plexiform layer and outer plexiform layer thickness (in words) (treated groups compared with model group): thicker
